# Measured values taken from patent US20140199279A1, “METHODS FOR ENHANCING THE DELIVERY OF GENE-[…]” (Bluebird Bio, Inc., priority 2011, published 2014).
# Several values for one entry are separate records, joined by “and”; a condition that tells them apart may be missing. Equal entries are not always repeated.
# How the values were obtained:
# [1] = test system: G-CSF mobilized peripheral blood CD34+ cells; test: Puromycin selection of HPV654-transduced G-CSF mobilized peripheral blood CD34+ cells; PCR of CFU-GM colonies for lentiviral vector; format: cell-based, human
# Description: (§1) Viral titers were determined by qPCR analysis of transduced NIH3T3 cells with proviral copy number controls.
# (§2) Either fresh bone marrow (BM, Lonza, Walkersville, Md.) or cryopreserved G-CSF-mobilized peripheral blood (mPB, AllCells, Emeryville, Calif.) CD34^+ purified cells were used from normal human donors. At a cell concentration of 1×10^6/ml, the CD34 cells were prestimulated for 24 hours (BM) or 18 hours (mPB) in StemPro-34 SFM supplemented with L-glutamine, 100 ng/ml hSCF, 100 ng/ml hTPO, 100 ng/ml hFLT3-L and 20 ng/ml hIL-3 for BM or 60 ng/ml hIL-3 for mPB. The cells were then resuspended at a concentration of 4×10^6 (BM) or 3×10^6 (mPB) cells/ml in the same medium containing cytokines with additional supplementation with 8 μg/ml protamine sulfate and the HPV654 supernatant at either 10% (final exposed titer of 3×10^7 IU/ml with MOI of 7.5 for BM and 1×10^7 IU/ml with MOI of 3.3 for mPB) or 50% (final exposed titer of 1.5×108 IU/ml with MOI of 37.5 for BM and 5×10^7 IU/ml with MOI of 16.7 for mPB). […] Each colony was then analyzed for the presence of the lentiviral vector by PCR analysis of individual colonies using primers for erythropoietin gene for BM and human actin gene for mPB and primers specific for the lentiviral vector (GAG for BM and LTR for mPB).
# [2] = test system: bone marrow CD34+ cells; test: Puromycin selection of HPV654-transduced bone marrow CD34+ cells; PCR of CFU-GM colonies for lentiviral vector; format: cell-based, human; conditions: BM CD34+ cells, 5 μg/ml puromycin for 24 hours, 14 days growth
# Description: as §1, §2
structure (smiles),measurement,setting,value
COc1ccc(C[C@H](N)C(=O)N[C@H]2[C@@H](O)[C@H](n3cnc4c(N(C)C)ncnc43)O[C@@H]2CO)cc1 [puromycin],colonies positive for the lentiviral vector (transduced cells),[1],88% and 100%
same,colonies positive for the lentiviral vector (transduced cells),[2]; 10% HPV654 supernatant,100%
same,colonies positive for the lentiviral vector (transduced cells),[2]; 50% HPV654 supernatant,79%
